Results as given in US9902702B2, “Spirocycloheptanes as inhibitors of rock” (BRISTOL-MYERS SQUIBB COMPANY, priority 2014, dated 2018).

The molecules below were run against ROCK2 (Homo sapiens, UniProt O75116) (assay: ROCK assay: phosphorylation of FITC peptide substrate, LABCHIP 3000 mobility shift). Settings: 5 μM ATP, 1.5 μM peptide substrate; read-out: ROCK2 Activity (ROCK IC50 range).
Sequence of ROCK2 (O75116 whole entry, species assumed): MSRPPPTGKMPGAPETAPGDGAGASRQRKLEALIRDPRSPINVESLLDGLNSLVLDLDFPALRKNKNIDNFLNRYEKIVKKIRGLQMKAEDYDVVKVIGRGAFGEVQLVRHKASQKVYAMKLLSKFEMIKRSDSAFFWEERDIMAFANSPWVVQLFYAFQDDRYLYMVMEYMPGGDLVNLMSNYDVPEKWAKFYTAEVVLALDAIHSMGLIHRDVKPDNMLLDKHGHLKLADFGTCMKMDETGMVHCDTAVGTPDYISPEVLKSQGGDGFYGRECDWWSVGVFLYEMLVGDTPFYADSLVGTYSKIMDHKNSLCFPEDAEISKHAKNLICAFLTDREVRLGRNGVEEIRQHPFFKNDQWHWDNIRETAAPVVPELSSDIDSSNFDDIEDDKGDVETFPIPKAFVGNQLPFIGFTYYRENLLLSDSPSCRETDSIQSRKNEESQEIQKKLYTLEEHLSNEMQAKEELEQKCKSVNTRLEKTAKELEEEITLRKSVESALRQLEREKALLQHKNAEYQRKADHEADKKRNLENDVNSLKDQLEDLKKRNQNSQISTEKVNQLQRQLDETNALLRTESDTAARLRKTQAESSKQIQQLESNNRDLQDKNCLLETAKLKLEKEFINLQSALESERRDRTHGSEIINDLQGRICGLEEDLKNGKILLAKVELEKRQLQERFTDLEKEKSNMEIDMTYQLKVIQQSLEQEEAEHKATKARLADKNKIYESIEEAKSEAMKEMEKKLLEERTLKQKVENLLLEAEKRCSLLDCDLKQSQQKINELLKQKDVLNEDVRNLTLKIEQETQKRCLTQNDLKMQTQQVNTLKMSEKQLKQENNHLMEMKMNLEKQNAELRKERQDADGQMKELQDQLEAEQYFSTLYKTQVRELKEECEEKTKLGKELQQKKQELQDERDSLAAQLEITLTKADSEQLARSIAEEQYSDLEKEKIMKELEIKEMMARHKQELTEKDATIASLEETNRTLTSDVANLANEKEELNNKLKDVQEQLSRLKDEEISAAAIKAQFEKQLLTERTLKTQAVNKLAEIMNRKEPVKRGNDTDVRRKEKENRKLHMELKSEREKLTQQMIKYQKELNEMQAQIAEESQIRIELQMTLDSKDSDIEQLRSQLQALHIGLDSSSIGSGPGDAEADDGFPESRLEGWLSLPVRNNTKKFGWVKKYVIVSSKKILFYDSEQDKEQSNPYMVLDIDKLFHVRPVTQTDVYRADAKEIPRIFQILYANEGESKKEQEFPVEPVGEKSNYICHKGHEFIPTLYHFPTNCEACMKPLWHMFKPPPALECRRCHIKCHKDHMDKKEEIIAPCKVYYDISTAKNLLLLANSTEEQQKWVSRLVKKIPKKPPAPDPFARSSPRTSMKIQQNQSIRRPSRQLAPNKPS
Type: biochemical
How it was run: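 IC50 values come from curve-fitting percent kinase inhibition across a compound dilution series. The reaction is started with Rho kinase variant in HEPES pH 7.5 buffer with MgCl2, Brij-35 and DTT, with 5 μM ATP, 1.5 μM FITC-labelled peptide and under 2% DMSO. After EDTA quench, product and substrate are separated by microfluidic mobility shift.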
In the case of `O=C(NC1CC2(C1)CC(c1n[nH]c(=O)c3ccccc13)C2)c1cnn2cc(N3CCCC3)ccc12` [Example 87, N-((aR)-6-(4-oxo-3,4-dihydrophthalazin-1-yl)spiro[3.3]heptan-2-yl)-6-(pyrrolidin-1-yl)pyrazolo[1,5-a]pyridine-3-carboxamide], the IC50 is reported as 0.2 to 2 nM. With `O=C(NC1CC2(C1)CC(c1n[nH]c(=O)c3ccccc13)C2)c1cnn2cc(N3CCC(F)C3)ccc12` [Example 88, 6-((R)-3-fluoropyrrolidin-1-yl)-N-((aR)-6-(4-oxo-3,4-dihydrophthalazin-1-yl)spiro[3.3]heptan-2-yl)pyrazolo[1,5-a]pyridine-3-carboxamide] the IC50 was 0.2 to 2 nM. For `O=C(NC1CC2(C1)CC(c1n[nH]c(=O)c3ccccc13)C2)c1cnn2cc(N3CCC(F)C3)ccc12` [Example 89, 6-((S)-3-fluoropyrrolidin-1-yl)-N-((aR)-6-(4-oxo-3,4-dihydrophthalazin-1-yl)spiro[3.3]heptan-2-yl)pyrazolo[1,5-a]pyridine-3-carboxamide], the IC50 was 0.2 to 2 nM. Work on `O=C(NC1CC2(C1)CC(c1n[nH]c(=O)c3ccccc13)C2)c1cnn2cc(N3CCC(F)(F)C3)ccc12` [Example 90, 6-(3,3-difluoropyrrolidin-1-yl)-N-((aR)-6-(4-oxo-3,4-dihydrophthalazin-1-yl)spiro[3.3]heptan-2-yl)pyrazolo[1,5-a]pyridine-3-carboxamide] yielded an IC50 of 0.2 to 2 nM. Molecule `O=C(NC1CC2(C1)CC(c1n[nH]c(=O)c3ccccc13)C2)c1cnn2cc(N3CC(F)C3)ccc12` [Example 91, 6-(3-fluoroazetidin-1-yl)-N-((aR)-6-(4-oxo-3,4-dihydrophthalazin-1-yl)spiro[3.3]heptan-2-yl)pyrazolo[1,5-a]pyridine-3-carboxamide] has an IC50 of 0.2 to 2 nM. For `O=C(NC1CC2(C1)CC(c1n[nH]c(=O)c3ccccc13)C2)c1cnn2cc(N3CC(F)(F)C3)ccc12` [Example 92, 6-(3,3-difluoroazetidin-1-yl)-N-((aR)-6-(4-oxo-3,4-dihydrophthalazin-1-yl)spiro[3.3]heptan-2-yl)pyrazolo[1,5-a]pyridine-3-carboxamide], the IC50 was 0.2 to 2 nM. Work on `O=C(NC1CC2(C1)CC(c1n[nH]c(=O)c3ccccc13)C2)c1cn2c(n1)sc1ccccc12` [Example 93, N-((aR)-6-(4-oxo-3,4-dihydrophthalazin-1-yl)spiro[3.3]heptan-2-yl)benzo[d]imidazo[2,1-b]thiazole-2-carboxamide] yielded an IC50 of 2.01 to 5 nM. With `O=C(NC1CC2(C1)CC(c1n[nH]c(=O)c3ccccc13)C2)c1cn2c(n1)sc1ccccc12` [Example 94, N-((aR)-6-(4-oxo-3,4-dihydrophthalazin-1-yl)spiro[3.3]heptan-2-yl)benzo[d]imidazo[2,1-b]thiazole-2-carboxamide] the IC50 was 5.1 to 15 nM. For `CCc1nn2cc(C(=O)NC3CC4(C3)CC(c3n[nH]c(=O)c5ccccc35)C4)nc2s1` [Example 95, 2-ethyl-N-((aR)-6-(4-oxo-3,4-dihydrophthalazin-1-yl)spiro[3.3]heptan-2-yl)imidazo[2,1-b][1,3,4]thiadiazole-6-carboxamide], the IC50 was 5.1 to 15 nM. `O=C(NC1CC2(C1)CC(c1n[nH]c(=O)c3ccccc13)C2)c1cnn2ncccc12` [Example 96, N-((aR)-6-(4-oxo-3,4-dihydrophthalazin-1-yl)spiro[3.3]heptan-2-yl)pyrazolo[1,5-b]pyridazine-3-carboxamide] showed an IC50 of 15.1 to 100 nM. `CC(C)(O)COc1ccc2c(C(=O)NC3CC4(C3)CC(c3n[nH]c(=O)c5ccccc35)C4)cnn2c1C1CC1` [Example 97, 7-cyclopropyl-6-(2-hydroxy-2-methylpropoxy)-N-((aR)-6-(4-oxo-3,4-dihydrophthalazin-1-yl)spiro[3.3]heptan-2-yl)pyrazolo[1,5-a]pyridine-3-carboxamide] was tested, and the IC50 was 0.2 to 2 nM. `O=C(NC1CC2(C1)CC(c1n[nH]c(=O)c3ccccc13)C2)c1cnn2cc(OCC(O)(C(F)(F)F)C(F)(F)F)ccc12` [Example 98, N-((aR)-6-(4-oxo-3,4-dihydrophthalazin-1-yl)spiro[3.3]heptan-2-yl)-6-(3,3,3-trifluoro-2-hydroxy-2-(trifluoromethyl)propoxy)pyrazolo[1,5-a]pyridine-3-carboxamide] was tested, and the IC50 was 2.01 to 5 nM. In the case of `O=C(NC1CC2(C1)CC(c1n[nH]c(=O)c3ccccc13)C2)c1cnn2cc(OCc3ccccc3)ccc12` [Example 99, 6-(benzyloxy)-N-((aR)-6-(4-oxo-3,4-dihydrophthalazin-1-yl)spiro[3.3]heptan-2-yl)pyrazolo[1,5-a]pyridine-3-carboxamide], the IC50 is reported as 0.2 to 2 nM. In the case of `O=C(NC1CC2(C1)CC(c1n[nH]c(=O)c3ccccc13)C2)c1ccnn1CC(F)F` [Example 100, 1-(2,2-difluoroethyl)-N-((aR)-6-(4-oxo-3,4-dihydrophthalazin-1-yl)spiro[3.3]heptan-2-yl)-1H-pyrazole-5-carboxamide], the IC50 is reported as 100 to 2100 nM. `O=C(NC1CC2(C1)CC(c1n[nH]c(=O)c3ccccc13)C2)c1ccnn1CCC(F)(F)F` [Example 101, N-((aR)-6-(4-oxo-3,4-dihydrophthalazin-1-yl)spiro[3.3]heptan-2-yl)-1-(3,3,3-trifluoropropyl)-1H-pyrazole-5-carboxamide] was tested, and the IC50 was 15.1 to 100 nM. `COc1ccc(Cn2cc(C(=O)NC3CC4(C3)CC(c3n[nH]c(=O)c5ccccc35)C4)cn2)cc1` [Example 102, 1-(4-methoxybenzyl)-N-((aR)-6-(4-oxo-3,4-dihydrophthalazin-1-yl)spiro[3.3]heptan-2-yl)-1H-pyrazole-4-carboxamide] was tested, and the IC50 was 5.1 to 15 nM. For `O=C(NC1CC2(C1)CC(c1n[nH]c(=O)c3ccccc13)C2)c1ccnn1CC1CC1` [Example 103, 1-(cyclopropylmethyl)-N-((aR)-6-(4-oxo-3,4-dihydrophthalazin-1-yl)spiro[3.3]heptan-2-yl)-1H-pyrazole-5-carboxamide], the IC50 was 15.1 to 100 nM. `O=C(NC1CC2(C1)CC(c1n[nH]c(=O)c3ccccc13)C2)c1ccnn1C1CCOCC1` [Example 104, N-((aR)-6-(4-oxo-3,4-dihydrophthalazin-1-yl)spiro[3.3]heptan-2-yl)-1-(tetrahydro-2H-pyran-4-yl)-1H-pyrazole-5-carboxamide] gave an IC50 of 100 to 2100 nM. For `O=C(NC1CC2(C1)CC(c1n[nH]c(=O)c3ccccc13)C2)c1cnn2cc(OC3CCOC3)ccc12` [Example 105, N-((aR)-6-(4-oxo-3,4-dihydrophthalazin-1-yl)spiro[3.3]heptan-2-yl)-6-((tetrahydrofuran-3-yl)oxy)pyrazolo[1,5-a]pyridine-3-carboxamide], the IC50 was 0.2 to 2 nM. `CC(C)(C)OC(=O)NCCn1cc(C(=O)NC2CC3(C2)CC(c2n[nH]c(=O)c4ccccc24)C3)cn1` [Example 106, tert-butyl (2-(4-(((aR)-6-(4-oxo-3,4-dihydrophthalazin-1-yl)spiro[3.3]heptan-2-yl)carbamoyl)-1H-pyrazol-1-yl)ethyl)carbamate] gave an IC50 of 100 to 2100 nM. Work on `O=C(NC1CC2(C1)CC(c1n[nH]c(=O)c3ccccc13)C2)c1cnn2cc(OCC(O)C(F)(F)F)ccc12` [Example 107, N-((aR)-6-(4-oxo-3,4-dihydrophthalazin-1-yl)spiro[3.3]heptan-2-yl)-6-(3,3,3-trifluoro-2-hydroxypropoxy)pyrazolo[1,5-a]pyridine-3-carboxamide] yielded an IC50 of 0.2 to 2 nM. In the case of `COc1cccc(-n2cc(C(=O)NC3CC4(C3)CC(c3n[nH]c(=O)c5ccccc35)C4)cn2)c1` [Example 108, 1-(3-methoxyphenyl)-N-((aR)-6-(4-oxo-3,4-dihydrophthalazin-1-yl)spiro[3.3]heptan-2-yl)-1H-pyrazole-4-carboxamide], the IC50 is reported as 2.01 to 5 nM. For `O=C(NC1CC2(C1)CC(c1n[nH]c(=O)c3ccccc13)C2)c1cnn(Cc2ccccc2)c1` [Example 109, 1-benzyl-N-((aR)-6-(4-oxo-3,4-dihydrophthalazin-1-yl)spiro[3.3]heptan-2-yl)-1H-pyrazole-4-carboxamide], the IC50 was 2.01 to 5 nM. `CC(C)(O)COc1ccc2c(C(=O)NC3CC4(C3)CC(c3n[nH]c(=O)c5ccccc35)C4)cnn2c1C(N)=O` [Example 110, 6-(2-hydroxy-2-methylpropoxy)-N3-((aR)-6-(4-oxo-3,4-dihydrophthalazin-1-yl)spiro[3.3]heptan-2-yl)pyrazolo[1,5-a]pyridine-3,7-dicarboxamide] showed an IC50 of 15.1 to 100 nM. `N#Cc1c(O)ccc2c(C(=O)NC3CC4(C3)CC(c3n[nH]c(=O)c5ccccc35)C4)cnn12` [Example 111, 7-cyano-6-hydroxy-N-((aR)-6-(4-oxo-3,4-dihydrophthalazin-1-yl)spiro[3.3]heptan-2-yl)pyrazolo[1,5-a]pyridine-3-carboxamide] showed an IC50 of 15.1 to 100 nM. For `Cc1c(OCC(C)(C)O)ccc2c(C(=O)NC3CC4(C3)CC(c3n[nH]c(=O)c5ccccc35)C4)cnn12` [Example 112, 6-(2-hydroxy-2-methylpropoxy)-7-methyl-N-((aR)-6-(4-oxo-3,4-dihydrophthalazin-1-yl)spiro[3.3]heptan-2-yl)pyrazolo[1,5-a]pyridine-3-carboxamide], the IC50 was 2.01 to 5 nM. Molecule `COCc1c(OCC(C)(C)O)ccc2c(C(=O)NC3CC4(C3)CC(c3n[nH]c(=O)c5ccccc35)C4)cnn12` [Example 113, 6-(2-hydroxy-2-methylpropoxy)-7-(methoxymethyl)-N-((aR)-6-(4-oxo-3,4-dihydrophthalazin-1-yl)spiro[3.3]heptan-2-yl)pyrazolo[1,5-a]pyridine-3-carboxamide] has an IC50 of 2.01 to 5 nM. Molecule `Cc1c(C(=O)NC2CC3(C2)CC(c2n[nH]c(=O)c4ccccc24)C3)nnn1-c1ccccc1` [Example 114, 5-methyl-N-((aR)-6-(4-oxo-3,4-dihydrophthalazin-1-yl)spiro[3.3]heptan-2-yl)-1-phenyl-1H-1,2,3-triazole-4-carboxamide] has an IC50 of 2.01 to 5 nM. For `COc1ccc(-n2nnc(C(=O)NC3CC4(C3)CC(c3n[nH]c(=O)c5ccccc35)C4)c2C)cc1` [Example 115, 1-(4-methoxyphenyl)-5-methyl-N-((aR)-6-(4-oxo-3,4-dihydrophthalazin-1-yl)spiro[3.3]heptan-2-yl)-1H-1,2,3-triazole-4-carboxamide], the IC50 was 2.01 to 5 nM.
